Values quoted from earlier work, collected in patent publication US11224632B2 (priority 2016, dated 2022).

Target: N-type calcium channel (Homo sapiens, UniProt Q00975)
Settings: in vivo; cited from earlier work

Chain of N-type calcium channel (Q00975 whole entry, looked up): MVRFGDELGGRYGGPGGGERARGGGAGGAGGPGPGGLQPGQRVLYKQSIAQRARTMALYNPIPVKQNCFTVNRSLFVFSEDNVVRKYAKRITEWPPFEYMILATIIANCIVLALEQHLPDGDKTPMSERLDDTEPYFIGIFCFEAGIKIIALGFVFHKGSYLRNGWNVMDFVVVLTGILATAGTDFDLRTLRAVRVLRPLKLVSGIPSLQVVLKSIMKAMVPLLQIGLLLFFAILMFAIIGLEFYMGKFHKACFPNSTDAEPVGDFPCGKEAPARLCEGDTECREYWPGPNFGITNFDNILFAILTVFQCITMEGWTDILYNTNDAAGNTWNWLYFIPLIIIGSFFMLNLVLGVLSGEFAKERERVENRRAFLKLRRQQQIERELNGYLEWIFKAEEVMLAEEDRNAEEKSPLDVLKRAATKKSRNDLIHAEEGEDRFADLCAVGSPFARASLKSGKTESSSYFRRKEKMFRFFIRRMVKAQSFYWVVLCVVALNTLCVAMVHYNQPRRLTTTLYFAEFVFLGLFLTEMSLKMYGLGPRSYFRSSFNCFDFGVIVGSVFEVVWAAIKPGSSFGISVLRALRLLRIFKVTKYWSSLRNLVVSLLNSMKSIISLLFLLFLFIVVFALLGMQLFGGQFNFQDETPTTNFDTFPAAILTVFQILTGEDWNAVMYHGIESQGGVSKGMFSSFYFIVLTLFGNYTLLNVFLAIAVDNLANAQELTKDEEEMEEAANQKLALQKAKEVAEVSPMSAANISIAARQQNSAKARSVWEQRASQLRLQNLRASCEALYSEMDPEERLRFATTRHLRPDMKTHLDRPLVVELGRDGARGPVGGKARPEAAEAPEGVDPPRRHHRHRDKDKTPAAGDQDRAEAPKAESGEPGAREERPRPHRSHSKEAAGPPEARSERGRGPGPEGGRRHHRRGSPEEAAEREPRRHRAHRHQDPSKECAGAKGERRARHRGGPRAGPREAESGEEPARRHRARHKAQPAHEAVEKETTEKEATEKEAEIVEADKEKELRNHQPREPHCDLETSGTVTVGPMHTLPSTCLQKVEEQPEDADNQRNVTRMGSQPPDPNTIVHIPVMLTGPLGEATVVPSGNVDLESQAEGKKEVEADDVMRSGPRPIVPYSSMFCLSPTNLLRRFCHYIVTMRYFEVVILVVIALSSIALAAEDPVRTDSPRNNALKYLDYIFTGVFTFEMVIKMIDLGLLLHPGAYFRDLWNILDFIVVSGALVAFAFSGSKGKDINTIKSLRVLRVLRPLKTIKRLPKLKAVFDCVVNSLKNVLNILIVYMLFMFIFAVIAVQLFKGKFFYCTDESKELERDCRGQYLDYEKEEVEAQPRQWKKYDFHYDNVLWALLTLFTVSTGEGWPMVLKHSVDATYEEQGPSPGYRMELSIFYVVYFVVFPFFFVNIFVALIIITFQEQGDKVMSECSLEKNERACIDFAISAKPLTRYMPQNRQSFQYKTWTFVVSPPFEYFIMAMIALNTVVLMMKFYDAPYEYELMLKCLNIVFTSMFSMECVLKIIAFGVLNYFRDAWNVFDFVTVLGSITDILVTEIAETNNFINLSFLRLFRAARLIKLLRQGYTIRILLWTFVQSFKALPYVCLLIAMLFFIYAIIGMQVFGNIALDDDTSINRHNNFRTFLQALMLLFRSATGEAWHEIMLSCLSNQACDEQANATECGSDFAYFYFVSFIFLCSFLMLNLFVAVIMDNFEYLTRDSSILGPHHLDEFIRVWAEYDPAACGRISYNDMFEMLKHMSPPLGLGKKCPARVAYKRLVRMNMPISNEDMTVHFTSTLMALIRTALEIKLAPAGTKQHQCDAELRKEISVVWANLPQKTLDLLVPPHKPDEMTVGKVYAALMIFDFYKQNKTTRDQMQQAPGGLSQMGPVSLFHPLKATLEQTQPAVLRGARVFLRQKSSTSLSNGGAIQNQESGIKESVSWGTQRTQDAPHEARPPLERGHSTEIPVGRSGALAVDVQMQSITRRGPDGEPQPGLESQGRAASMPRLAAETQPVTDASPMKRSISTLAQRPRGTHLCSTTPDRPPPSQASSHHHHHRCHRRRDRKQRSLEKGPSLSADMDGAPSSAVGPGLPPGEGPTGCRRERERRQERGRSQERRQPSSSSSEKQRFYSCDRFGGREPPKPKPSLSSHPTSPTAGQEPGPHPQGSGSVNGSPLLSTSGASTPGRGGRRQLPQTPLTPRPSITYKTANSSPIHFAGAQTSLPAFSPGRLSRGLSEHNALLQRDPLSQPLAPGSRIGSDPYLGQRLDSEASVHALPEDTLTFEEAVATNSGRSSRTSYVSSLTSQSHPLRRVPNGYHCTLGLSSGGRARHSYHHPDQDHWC

CSCC[C@@H]1NC(=O)[C@H](CC(C)C)NC(=O)[C@H](CCCNC(=N)N)NC(=O)[C@H](CO)NC(=O)[C@@H]2CSSC[C@@H]3NC(=O)[C@H](CO)NC(=O)CNC(=O)[C@H]([C@@H](C)O)NC(=O)[C@H](CSSC[C@H](N)C(=O)N[C@@H](CCCCN)C(=O)NCC(=O)N[C@@H](CCCCN)C(=O)NCC(=O)N[C@@H](C)C(=O)N[C@@H](CCCCN)C(=O)N2)NC(=O)[C@H](CSSC[C@@H](C(N)=O)NC(=O)[C@H](CCCCN)NC(=O)CNC(=O)[C@H](CO)NC(=O)[C@H](CCCNC(=N)N)NC3=O)NC(=O)[C@H](CC(=O)O)NC(=O)[C@H](Cc2ccc(O)cc2)NC1=O [ziconotide]
patients with severe CNS adverse effects: 88%
